Results as given in patent publication US20120129872A1, “FUSED HETEROARYL INHIBITORS OF PRO-MATRIX METALLOPROTEINASE ACTIVATION” (priority 2010, published 2012).

Assays:
SCW-induced arthritis = assay: Efficacy in rats with SCW-induced arthritis (ankle thickness, clinical scores); type: in vivo, rat; conditions: 5, 20, 50 mg/kg BID
Excerpt: A polyarthritis can be induced in female Lewis rats following i.p. administration of streptococcal cell wall (SCW) […] (PG-PS) (J Exp Med 1977; 146:1585-1602). The model has an acute phase (days 3-7) that is complement and neutrophil-dependent and that resolves. A chronic erosive phase begins at about day ten and is dependent on the development of specific T cell immunity to the PG-GS, which resists digestion and remains present in synovial macrophages for months. Like rheumatoid arthritis, SCW-induced arthritis is reduced by TNF inhibitors, and the dependence of SCW-induced arthritis on macrophages (Rheumatology; 2001; 40:978-987) and the strong association of rheumatoid arthritis severity with synovial-tissue macrophage counts (Ann Rheum Dis; 2005; 64:834-838) makes SCW-arthritis an attractive model for testing potential therapeutic agents. SCW PG-PS 10S (Beckton Dickinson Cat#210866) suspended in saline was vortexed for 30 seconds and sonicated for 3 min with a probe type sonicator prior to injection. […]
To induce arthritis, Female Lewis (LEW/N) rats, 5-6 weeks of age (80-100 g) were injected (i.p.) with SCW PG-PS as described above. […] Each ankle was measured 3 times and averaged, and treatment groups were randomized based on ankle thickness (Table 6). […]

MMP9 = biological target: T1, MMP9 (Rattus norvegicus, UniProt P50282); assay: Pro and active MMP9 in ankles of rats with SCW-induced arthritis (Western blot); type: in vivo
T1 construct: endogenous in cells; host or cells: primary synoviocytes from arthritic female Lewis rats
Description: Hind-limbs were skinned, severed just above the tibia-tarsus joint and below the metatarsals, and the tibia-tarsus joints (ankles) were weighed, snap frozen and pulverized on dry ice using a hammer and anvil. The pulverized tissue was suspended in 3 volumes (w:v) of ice-cold homogenization buffer containing 50 mM Tris pH 7.5, 150 mM NaCl, 5 mM EDTA, 1% Triton X100, 0.05% Brij 30, 10% dimethylsulfoxide and Complete EDTA-free Protease Inhibitor Cocktail (Roche Diagnostics). The suspended tissue was homogenized sequentially with a Kinematica AG Polytron and a Dounce homogenizer. Homogenates were centrifuged at 16,000×g for 10 min at 4° C. and the soluble fractions were saved. Dimethylsulfoxide was removed from a portion of each soluble fraction using PD MiniTrap™ G-25 desalting columns (GE Healthcare). Homogenates (0.25 mL), free of DMSO, were diluted with an equal volume of binding buffer (i.e., homogenization buffer without dimethylsufoxide) and adjusted to contain 50 μL of a 50% slurry of gelatin-conjugated sepharose. Following 2 hours of rotation at 4° C. the beads were washed twice in binding buffer and eluted in 100 μL 2×-reducing Laemmli buffer with heating to 95° C. for 5 minutes. […]

T1 sequence (P50282 108-708): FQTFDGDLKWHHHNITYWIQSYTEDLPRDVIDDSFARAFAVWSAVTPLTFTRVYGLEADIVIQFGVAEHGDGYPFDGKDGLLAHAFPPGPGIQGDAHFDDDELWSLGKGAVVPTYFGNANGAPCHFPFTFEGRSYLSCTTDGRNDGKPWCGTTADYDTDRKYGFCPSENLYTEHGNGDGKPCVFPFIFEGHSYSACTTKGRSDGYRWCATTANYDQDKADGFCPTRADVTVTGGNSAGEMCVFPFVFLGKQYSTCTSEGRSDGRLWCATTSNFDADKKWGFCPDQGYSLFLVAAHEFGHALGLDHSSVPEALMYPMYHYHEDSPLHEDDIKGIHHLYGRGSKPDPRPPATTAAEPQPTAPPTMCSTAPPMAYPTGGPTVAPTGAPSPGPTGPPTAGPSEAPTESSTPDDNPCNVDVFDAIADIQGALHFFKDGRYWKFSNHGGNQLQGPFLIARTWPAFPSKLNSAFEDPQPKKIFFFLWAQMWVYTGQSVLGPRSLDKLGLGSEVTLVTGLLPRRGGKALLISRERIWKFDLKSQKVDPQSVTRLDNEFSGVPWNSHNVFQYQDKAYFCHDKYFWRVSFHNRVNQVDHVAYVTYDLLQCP

Abundance of proMMP9 in ankles (MMP9; Day 26, FIG. 3A lanes 4-9): did not reduce the abundance of proMMP9
Abundance of proMMP9 in ankles (MMP9; Day 26, FIG. 3A lanes 4-9, listed as Compound a): did not reduce the abundance of proMMP-9
Structure (SMILES): Cc1nc(C)c(-c2csc(Nc3cc(S(N)(=O)=O)ccc3OC(C)C)n2)s1 [Compound-α, 3-(2′,4′-Dimethyl-[4,5′]bithiazolyl-2-ylamino)-4-isopropoxy-benzenesulfonamide•HBr]
Effect on ankle thickness measurements (SCW-induced arthritis; Day 18-26): dose-dependent decrease in ankle thickness measurements
Effect on clinical score measurements (SCW-induced arthritis; significant effects emerging at 20 mg/kg): dose dependent decrease in clinical score measurements
